Measured values taken from patent US11457626B2, “Method for impairing a Cassie-Baxter state” (priority 2016, dated 2022).

Assays:
[1] = solubility / dispersibility of dipicolinic acid in vehicles; assay type: physicochemical
Text: As natural emulsifiers, the use of phosphates also greatly expands the possible range of usable solution/suspensions available for the present invention to concomitantly include, along with these phosphates, other arthropod plastron chemical degraders, such as carboxylic, dipicolinic, oxalic acids and their respective salts, as well as terpenes and low molecular weight non-polar alkanes, including cyclic alkanes. Dipicolinic acid is also dually beneficially to this plastron degrading effect because it is also a potent anti-inflammatory PLA2 inhibitor and thus would help reduce the concomitant skin inflammation associated with demodex infestations (U.S. Pat. No. 6,127,393, Antiproliferative, antiinfective, antiinflammatory, autologous immunization agent and method). […] However, the inventor has discovered that dipicolinic acid is soluble in glycerin, a common skin product ingredient, and is colloidal in low molecular weight non-polar solutions and in hyaluronic acid (a very high molecular weight […] common to the eye).

[2] = cited from earlier work
[3] = acidity relative to oxalic acid; assay type: physicochemical
Text: Further, their respective salts, sodium dipicolinate and monosodium phosphate both have essentially neutral pHs and both are known, powerful natural coordination complex chelators that prefer calcium over sodium in all but basic pH environments. […] This calcium coordination effect is why acidic anions dipicolinic acid and phosphoric acid, as well as their respective salts, are commonly used detergent ingredients (European Patent No. EP 0358472 A2, Detergent Compositions). In addition, phosphates (the phosphoric acid salts) are so safe and non-toxic that they are used as food additives and as emulsifiers.

[4] = test system: PLA2; settings: anti-inflammatory; cited from earlier work
[5] = test system: demodex mites; settings: mineral oil as control and solvent; cited from earlier work

Structure (SMILES) | solubility in glycerin ([1]; glycerin) | state in hyaluronic acid ([1]; hyaluronic acid) | state in low molecular weight non-polar solutions ([1]; low molecular weight non-polar solutions) | solubility in water [2] | times less acidic than oxalic acid [3] | PLA2 inhibition [4] | activity against demodex mites among tea tree oil ingredients [5]
O=C(O)c1cccc(C(=O)O)n1 [dipicolinic acid] | soluble | colloidal | colloidal | limited solubility | about 10 times | potent | –
O=P(O)(O)O [phosphoric acid] | – | – | – | – | about 10 times | – | –
CC1=CCC(O)(C(C)C)CC1 (centres unmarked) [terpinen-4-ol] | – | – | – | – | – | – | most active ingredient
